US12357598B2, “Treatment of neurodevelopmental disorders” (THE REGENTS OF THE UNIVERSITY OF CALIFORNIA, priority 2018, dated 2025)

Assays:
[1] = system: parvalbumin (PV); test: PV-immunohistochemistry in mPFC after maternal glyphosate exposure; assay type: in vivo, mouse; settings: juvenile offspring of maternal glyphosate exposure vs water treated group
Experimental: PV-immunohistochemistry. Immunohistochemistry of PV was performed as reported previously (7,13,16,17). Mice were anesthetized with 5% isoflurane and sodium pentobarbital (50 mg/kg), and perfused transcardially with 10 mL of saline, followed by 30 mL of ice-cold 4% paraformaldehyde in 0.1M phosphate buffer (pH 7.4). Brains were removed from the skulls and post fixed overnight at 4° C. in the same fixative. For the immunohistochemical analysis, 50 μm-thick serial, coronal sections of brain tissue were cut in ice-cold 0.01M phosphate buffered saline (pH 7.4) using a vibrating blade microtome (VT1000s, Leica Microsystems, Tokyo, Japan). Mounted on gelatinized slides brain sections were washed by PBS for three times and then blocked in PBS containing 0.3% Triton X-100 (PBST) and 3% normal serum for 1 h at room temperature. The samples were then incubated for 24 h at 4° C. with […] polyclonal anti-parvalbumin (PV) antibody (1:100, abcam, ab11427) in PBST with 1% normal serum. After that the sections were washed three times in PBS and then incubated for 2 h in room temperature with Alexa Fluor 488 Polyclonal Antibody (1:1000, Invitrogen, A11094). […] The PV-immunofluorescent-positive cells in the inflalimbic (IL) and prelimbic (PrL) regions (0.05 mm^2) of mPFC was analyzed using a fluorescence microscope with a CCD camera (Olympus IX70, Tokyo, Japan) and the SCION IMAGE software package. […]

[2] = system: ddY mice; test: Oxylipin profiling of brain regions of juvenile offspring after prenatal poly(I:C) (MIA); assay type: in vivo, mouse; settings: juvenile offspring (P28) after prenatal poly(I:C)
Experimental: Administration of poly(I:C) into pregnant mice. The schedule of poly(I:C) treatment was performed as reported previously (13,36-39). The pregnant mice were injected intraperitoneally (i.p.) for six consecutive days from E12 to E17 with poly(I:C) (5.0 mg/kg/day, Sigma-Aldrich Co. Ltd., St. Louis, MO, USA) dissolved in physiological saline, or an equivalent volume (5 ml/kg) of saline. The male offspring were separated from their mothers at wearing (P21), and mice were caged each three-five in the groups in clear polycarbonate cage (22.5×33.8×14.0 cm). Mice were housed under controlled temperatures and 12-hour light/dark cycles (lights on between 07:00-19:00 h), with ad libitum food and water.
Collection of brain samples and oxylipin profiling. The pregnant mice were injected i.p. with poly(I:C) (5.0 mg/kg/day for 6 days from E12 to E17) or saline, as described above. The male offspring were separated from their mothers at wearing (P21). On P28, mice were deeply anesthetized with isoflurane and brains were removed from the skulls. For Western blot analysis, brain regions such as prefrontal cortex (PFC), striatum, CA1, CA3 and dentate gyrus (DG) of the hippocampus were dissected from brain on ice using a Leica microscope S9E (Leica Microsystems, Tokyo, Japan). The samples were stored at −80° C. before assay. For oxylipin analysis, PFC, hippocampus, and cerebellum were dissected from brain on ice, and the samples were stored at −80° C. before assay. Measurement of eicosanoids was performed at UC Davis using the previous method (57).

O=C(O)CNCP(=O)(O)O [glyphosate]
PV-immunoreactivity in the prelimbic (PrL) of medial PFC [1]: significantly lower

polyriboinosinic-polyribocytidilic acid [Poly(I:C)]
5(6)-EpETrE level ([2]; PFC): 222.07 ± 22.38 pmol/g tissue | 6-keto-PGF1α level ([2]; PFC): 22.088 ± 1.785 pmol/g tissue | 8(9)-EpETrE level ([2]; PFC): 6.725 ± 0.892 pmol/g tissue | 9(10)-EpOME level ([2]; PFC): 2.695 ± 0.424 pmol/g tissue | 9,10,13-TriHOME level ([2]; PFC): 22.676 ± 3.814 pmol/g tissue | 9,10-DiHOME level ([2]; PFC): 1.069 ± 0.188 pmol/g tissue | 9,12,13-TriHOME level ([2]; PFC): 39.728 ± 6.854 pmol/g tissue | 9-HODE level ([2]; PFC): 24.253 ± 3.782 pmol/g tissue | 9-oxo-ODE level ([2]; PFC): 15.032 ± 2.690 pmol/g tissue | 10(11)-EpDPE level ([2]; PFC): 3.698 ± 0.292 pmol/g tissue | 11(12)-EpETrE level ([2]; PFC): 26.639 ± 3.530 pmol/g tissue | 11-HETE level ([2]; PFC): 72.292 ± 5.677 pmol/g tissue | 12(13)-EpOME level ([2]; PFC): 2.934 ± 0.435 pmol/g tissue | 12,13-DiHOME level ([2]; PFC): 4.640 ± 0.477 pmol/g tissue | 12-HETE level ([2]; PFC): 28.597 ± 2.727 pmol/g tissue | 13-HODE level ([2]; PFC): 31.020 ± 5.237 pmol/g tissue | 14(15)-EpETrE level ([2]; PFC): 30.74 ± 5.605 pmol/g tissue | 15,16-DiHODE level ([2]; PFC): 2.785 ± 0.414 pmol/g tissue | 15-HETE level ([2]; PFC): 68.997 ± 4.672 pmol/g tissue | 19,20-DiHDPE level ([2]; PFC): 4.319 ± 0.331 pmol/g tissue | EKODE level ([2]; PFC): 6.552 ± 1.725 pmol/g tissue | PGD2 level ([2]; PFC): 147.79 ± 9.748 pmol/g tissue | PGE2 level ([2]; PFC): 16.359 ± 1.175 pmol/g tissue | PGF2a level ([2]; PFC): 86.798 ± 6.454 pmol/g tissue | Thromboxane B2 level ([2]; PFC): 43.922 ± 3.349 pmol/g tissue | 5(6)-EpETrE level ([2]; cerebellum): 174.37 ± 11.71 pmol/g tissue | 6-keto-PGF1a level ([2]; cerebellum): 29.69 ± 1.379 pmol/g tissue | 8(9)-EpETrE level ([2]; cerebellum): 5.453 ± 0.582 pmol/g tissue | 9(10)-EpOME level ([2]; cerebellum): 3.076 ± 0.662 pmol/g tissue | 9,10,13-TriHOME level ([2]; cerebellum): 20.84 ± 3.099 pmol/g tissue | 9,10-DiHOME level ([2]; cerebellum): 1.283 ± 0.279 pmol/g tissue | 9,12,13-TriHOME level ([2]; cerebellum): 37.62 ± 5.925 pmol/g tissue | 9-HODE level ([2]; cerebellum): 23.33 ± 2.571 pmol/g tissue | 9-oxo-ODE level ([2]; cerebellum): 16.56 ± 2.802 pmol/g tissue | 10(11)-EpDPE level ([2]; cerebellum): 6.061 ± 0.717 pmol/g tissue | 11(12)-EpETrE level ([2]; cerebellum): 21.10 ± 1.869 pmol/g tissue | 12(13)-EpOME level ([2]; cerebellum): 2.989 ± 0.423 pmol/g tissue | 12,13-DiHOME level ([2]; cerebellum): 5.406 ± 0.682 pmol/g tissue | 13-HODE level ([2]; cerebellum): 30.47 ± 4.048 pmol/g tissue | 14(15)-EpETrE level ([2]; cerebellum): 26.63 ± 3.595 pmol/g tissue | 15,16-DiHODE level ([2]; cerebellum): 2.772 ± 0.423 pmol/g tissue | 15-HETE level ([2]; cerebellum): 36.59 ± 3.256 pmol/g tissue | 19,20-DiHDPE level ([2]; cerebellum): 9.767 ± 0.858 pmol/g tissue | EKODE level ([2]; cerebellum): 7.801 ± 1.325 pmol/g tissue | PGD2 level ([2]; cerebellum): 21.60 ± 1.774 pmol/g tissue | PGE2 level ([2]; cerebellum): 6.969 ± 0.684 pmol/g tissue | PGF2a level ([2]; cerebellum): 46.32 ± 3.830 pmol/g tissue | TXB2 level ([2]; cerebellum): 14.62 ± 0.876 pmol/g tissue | 12-HETE level ([2]; cerebellum, first of two lines printed 12-HETE (r21)): 34.19 ± 3.215 pmol/g tissue | 12-HETE level ([2]; cerebellum, second of two lines printed 12-HETE (r23)): 75.46 ± 28.38 pmol/g tissue | 5(6)-EpETrE level ([2]; hippocampus): 333.09 ± 30.68 pmol/g tissue | 6-keto-PGF1α level ([2]; hippocampus): 47.853 ± 3.589 pmol/g tissue | 8(9)-EpETrE level ([2]; hippocampus): 10.53 ± 0.809 pmol/g tissue | 9(10)-EpOME level ([2]; hippocampus): 3.933 ± 0.304 pmol/g tissue | 9,10,13-TriHOME level ([2]; hippocampus): 31.142 ± 2.301 pmol/g tissue | 9,10-DiHOME level ([2]; hippocampus): 0.814 ± 0.116 pmol/g tissue | 9,12,13-TriHOME level ([2]; hippocampus): 54.137 ± 3.954 pmol/g tissue | 9-HODE level ([2]; hippocampus): 34.887 ± 1.969 pmol/g tissue | 9-oxo-ODE level ([2]; hippocampus): 24.50 ± 1.957 pmol/g tissue | 10(11)-EpDPE level ([2]; hippocampus): 6.103 ± 0.347 pmol/g tissue | 11(12)-EpETrE level ([2]; hippocampus): 42.05 ± 3.911 pmol/g tissue | 11-HETE level ([2]; hippocampus): 106.263 ± 6.366 pmol/g tissue | 12(13)-EpOME level ([2]; hippocampus): 4.641 ± 0.393 pmol/g tissue | 12,13-DiHOME level ([2]; hippocampus): 4.478 ± 0.528 pmol/g tissue | 12-HETE level ([2]; hippocampus): 83.22 ± 12.09 pmol/g tissue | 13-HODE level ([2]; hippocampus): 41.916 ± 2.454 pmol/g tissue | 14(15)-EpETrE level ([2]; hippocampus): 45.020 ± 3.734 pmol/g tissue | 15,16-DiHODE level ([2]; hippocampus): 2.295 ± 0.364 pmol/g tissue | 15-HETE level ([2]; hippocampus): 100.514 ± 6.210 pmol/g tissue | 19,20-DiHDPE level ([2]; hippocampus): 4.228 ± 0.321 pmol/g tissue | EKODE level ([2]; hippocampus): 14.86 ± 0.949 pmol/g tissue | PGD2 level ([2]; hippocampus): 119.25 ± 8.999 pmol/g tissue | PGE2 level ([2]; hippocampus): 20.186 ± 1.410 pmol/g tissue | PGF2a level ([2]; hippocampus): 153.113 ± 10.00 pmol/g tissue | Thromboxane B2 level ([2]; hippocampus): 65.491 ± 5.906 pmol/g tissue
